# Experimental data from patent US20130012687A1, “INDUCIBLE SELF-CLEAVING PROTEASE TAG AND METHOD OF PURIFYING RECOMBINANT PROTEINS USING THE SAME” (The Board of Trustees of the Leland Stanford Junior …, priority 2009, published 2013).
# Target: Vibrio cholerae MARTX toxin cysteine protease domain (CPD) (Vibrio cholerae serotype O1, UniProt Q9KS12)
# Assay type: biochemical
# Conditions: increasing amounts of InsP6, 2 hrs at 4° C.
# Chain of Vibrio cholerae MARTX toxin cysteine protease domain (CPD) (Q9KS12 3440-3650 limits assumed): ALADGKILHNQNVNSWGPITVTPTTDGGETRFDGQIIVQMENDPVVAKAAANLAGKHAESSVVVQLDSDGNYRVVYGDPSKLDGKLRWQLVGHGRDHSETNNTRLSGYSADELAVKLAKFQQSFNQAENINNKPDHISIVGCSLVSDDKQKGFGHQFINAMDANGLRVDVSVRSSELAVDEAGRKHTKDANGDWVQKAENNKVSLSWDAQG
compound,measurement,value
"O=P(O)(O)OC1C(OP(=O)(O)O)C(OP(=O)(O)O)C(OP(=O)(O)O)C(OP(=O)(O)O)C1OP(=O)(O)O (stereo not shown) [InsP6, inositol hexakisphosphate]",release of GFP from Ni2+-NTA agarose beads (CPD autoprocessing),stimulated the release of GFP
